Test results as given in patent US20090118336A1, “PYRAZOLE DERIVATIVES AND THEIR USE AS PI3K INHIBITORS” (priority 2006, published 2009).

Experiments:
p110α Type Ia human PI3K = target: T1, p110α Type Ia human PI3K (Homo sapiens, UniProt P42336); test: In vitro PI3K enzyme assay (AlphaScreen), Test (a); type: biochemical; conditions: recombinant enzyme, PI(4,5)P2 substrate, ATP 4 μM, read-out: IC50 versus p110α Type Ia human PI3K
T1 construct: full length DNA of each of the p110α, p110β and p110δ Type Ia human PI3K p110 isoforms; 6-His; made in house
Text: (a) In Vitro PI3K Enzyme Assay
The assay used AlphaScreen technology (Gray et al., Analytical Biochemistry, 2003, 313: 234-245) to determine the ability of test compounds to inhibit phosphorylation by recombinant Type I PI3K enzymes of the lipid PI(4,5)P2.
DNA fragments encoding human PI3K catalytic and regulatory subunits were isolated from cDNA libraries using standard molecular biology and PCR cloning techniques. The selected DNA fragments were used to generate baculovirus expression vectors. In particular, full length DNA of each of the p110α, p110β and p110δ Type Ia human PI3K p110 isoforms (EMBL Accession Nos. HSU79143, S67334, Y10055 for p110α, p110β and p110δ respectively) were sub-cloned into a pDEST10 vector (Invitrogen Limited, Fountain Drive, Paisley, UK). The vector is a Gateway-adapted version of Fastbac1 containing a 6-His epitope tag. […]
Biotinylated-DiC8-PI(3,4,5)P3 ([…]; Cell Signals Inc., Catalogue No. 107), recombinant purified GST-Grp1 PH protein (2.5 nM) and AlphaScreen Anti-GST donor and acceptor beads (100 ng; Packard Bioscience Limited, Station Road, Pangbourne, Berkshire, UK, Catalogue No. 6760603M) were added and the assay plates were left for about 5 to 20 hours at room temperature in the dark. The resultant signals arising from laser light excitation at 680 nm were read using a Packard AlphaQuest instrument. […]

[1] = target: mTOR PI kinase-related kinase (Homo sapiens, UniProt P42345); test: In vitro mTOR PI kinase-related kinase assay (AlphaScreen), Test (b); type: biochemical; conditions: recombinant mTOR (1362-2549), ATP 20 μM, read-out: IC50 versus mTOR PI kinase-related kinase
Protocol: (b) In Vitro mTOR PI Kinase-Related Kinase Assay
The assay used AlphaScreen technology (Gray et al., Analytical Biochemistry, 2003, 313: 234-245) to determine the ability of test compounds to inhibit phosphorylation by recombinant mTOR. […]
Each reaction was stopped by the addition of 10 μl of a mixture of EDTA (50 mM), bovine serum albumin (BSA; 0.5 mg/ml) and Tris-HCl pH7.4 buffer (50 mM) containing p70 S6 Kinase (T389) 1A5 Monoclonal Antibody (Cell Signalling Technology, Catalogue No. 9206B) and AlphaScreen Streptavidin donor and Protein A acceptor beads (200 ng; Perkin Elmer, Catalogue No. 6760002B and 6760137R respectively) were added and the assay plates were left for about 20 hours at room temperature in the dark. The resultant signals arising from laser light excitation at 680 nm were read using a Packard Envision instrument.
Phosphorylated biotinylated peptide is formed in situ as a result of mTOR mediated phosphorylation. […] Upon laser light excitation at 680 nm, the donor bead: acceptor bead complex produces a signal that can be measured. […]
mTOR enzyme inhibition for a given test compound was expressed as an IC50 value.

Chain of mTOR PI kinase-related kinase (P42345 1362-2549): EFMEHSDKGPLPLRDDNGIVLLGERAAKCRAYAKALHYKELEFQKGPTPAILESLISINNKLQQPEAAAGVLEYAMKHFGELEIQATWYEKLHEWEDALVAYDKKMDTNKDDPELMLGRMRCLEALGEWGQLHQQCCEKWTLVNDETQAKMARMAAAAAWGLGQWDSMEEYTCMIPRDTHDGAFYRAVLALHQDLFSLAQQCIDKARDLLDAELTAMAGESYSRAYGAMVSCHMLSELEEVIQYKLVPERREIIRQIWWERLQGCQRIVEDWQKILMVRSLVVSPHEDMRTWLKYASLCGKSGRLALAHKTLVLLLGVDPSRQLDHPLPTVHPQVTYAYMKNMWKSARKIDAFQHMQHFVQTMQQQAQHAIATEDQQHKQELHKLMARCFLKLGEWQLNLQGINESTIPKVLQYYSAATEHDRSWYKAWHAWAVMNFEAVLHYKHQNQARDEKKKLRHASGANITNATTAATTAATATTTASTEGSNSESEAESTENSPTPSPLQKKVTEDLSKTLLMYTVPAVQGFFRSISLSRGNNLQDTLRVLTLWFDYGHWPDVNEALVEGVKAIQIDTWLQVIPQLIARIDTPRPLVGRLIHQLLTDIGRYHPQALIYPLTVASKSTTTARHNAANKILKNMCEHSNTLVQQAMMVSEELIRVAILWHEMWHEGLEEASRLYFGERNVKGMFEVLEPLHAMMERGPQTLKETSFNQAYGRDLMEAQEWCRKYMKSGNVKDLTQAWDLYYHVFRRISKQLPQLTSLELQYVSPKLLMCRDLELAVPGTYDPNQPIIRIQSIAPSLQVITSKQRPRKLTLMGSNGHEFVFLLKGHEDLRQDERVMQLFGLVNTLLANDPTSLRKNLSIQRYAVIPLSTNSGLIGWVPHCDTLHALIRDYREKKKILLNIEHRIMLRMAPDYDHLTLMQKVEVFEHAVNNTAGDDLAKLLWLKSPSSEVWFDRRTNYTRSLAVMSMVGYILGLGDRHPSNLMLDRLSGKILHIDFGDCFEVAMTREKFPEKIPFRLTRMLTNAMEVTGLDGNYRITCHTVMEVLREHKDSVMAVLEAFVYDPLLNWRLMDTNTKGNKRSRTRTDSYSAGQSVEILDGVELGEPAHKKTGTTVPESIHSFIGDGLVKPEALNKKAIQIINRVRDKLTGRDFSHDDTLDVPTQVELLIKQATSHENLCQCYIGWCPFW
T1 sequence (P42336 whole entry, canonical isoform): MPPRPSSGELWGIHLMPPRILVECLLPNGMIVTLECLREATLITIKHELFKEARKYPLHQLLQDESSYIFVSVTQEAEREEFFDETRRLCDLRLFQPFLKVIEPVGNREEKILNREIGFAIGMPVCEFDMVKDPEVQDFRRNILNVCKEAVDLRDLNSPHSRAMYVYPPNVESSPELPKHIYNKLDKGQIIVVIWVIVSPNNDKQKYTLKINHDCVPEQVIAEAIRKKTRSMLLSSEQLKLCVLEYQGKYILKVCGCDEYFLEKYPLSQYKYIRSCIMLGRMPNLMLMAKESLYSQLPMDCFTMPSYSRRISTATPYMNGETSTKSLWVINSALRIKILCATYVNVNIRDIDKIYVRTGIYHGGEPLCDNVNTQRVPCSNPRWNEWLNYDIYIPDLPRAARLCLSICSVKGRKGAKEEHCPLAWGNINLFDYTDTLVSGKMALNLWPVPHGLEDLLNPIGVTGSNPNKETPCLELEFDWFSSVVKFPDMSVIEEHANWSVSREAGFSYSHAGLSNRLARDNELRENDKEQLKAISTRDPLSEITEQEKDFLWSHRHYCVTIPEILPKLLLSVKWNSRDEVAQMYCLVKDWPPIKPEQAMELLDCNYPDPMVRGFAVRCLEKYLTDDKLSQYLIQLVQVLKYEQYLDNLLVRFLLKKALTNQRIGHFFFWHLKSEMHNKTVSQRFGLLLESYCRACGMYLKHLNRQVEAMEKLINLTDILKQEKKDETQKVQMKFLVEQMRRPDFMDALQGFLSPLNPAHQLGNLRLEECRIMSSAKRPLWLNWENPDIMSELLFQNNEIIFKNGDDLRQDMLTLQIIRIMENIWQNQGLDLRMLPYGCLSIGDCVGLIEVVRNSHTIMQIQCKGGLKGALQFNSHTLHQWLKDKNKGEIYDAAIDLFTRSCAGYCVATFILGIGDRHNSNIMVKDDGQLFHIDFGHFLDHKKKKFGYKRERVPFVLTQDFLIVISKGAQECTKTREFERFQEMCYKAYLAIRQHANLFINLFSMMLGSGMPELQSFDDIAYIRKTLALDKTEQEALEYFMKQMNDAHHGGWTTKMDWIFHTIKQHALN
T1 sequence (P27986 whole entry partner, canonical isoform): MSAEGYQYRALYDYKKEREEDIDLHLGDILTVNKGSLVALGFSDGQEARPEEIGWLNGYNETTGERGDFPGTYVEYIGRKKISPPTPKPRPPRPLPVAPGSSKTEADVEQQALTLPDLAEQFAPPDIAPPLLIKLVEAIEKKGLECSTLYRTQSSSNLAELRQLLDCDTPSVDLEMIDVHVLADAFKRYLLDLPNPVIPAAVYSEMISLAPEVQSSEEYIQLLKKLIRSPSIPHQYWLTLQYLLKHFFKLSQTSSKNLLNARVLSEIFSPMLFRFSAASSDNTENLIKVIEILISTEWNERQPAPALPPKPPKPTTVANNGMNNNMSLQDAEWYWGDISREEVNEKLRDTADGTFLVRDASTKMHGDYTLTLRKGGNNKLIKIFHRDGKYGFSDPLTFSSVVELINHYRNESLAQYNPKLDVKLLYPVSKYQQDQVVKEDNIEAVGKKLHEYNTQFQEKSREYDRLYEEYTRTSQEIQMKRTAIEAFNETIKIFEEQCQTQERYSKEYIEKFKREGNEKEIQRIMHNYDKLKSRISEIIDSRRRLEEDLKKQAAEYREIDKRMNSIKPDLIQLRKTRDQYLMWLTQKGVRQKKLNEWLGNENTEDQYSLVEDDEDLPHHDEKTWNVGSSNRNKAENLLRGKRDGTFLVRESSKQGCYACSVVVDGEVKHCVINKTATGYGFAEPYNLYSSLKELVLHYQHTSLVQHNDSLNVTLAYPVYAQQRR

Compound | IC50 (p110α Type Ia human PI3K) | IC50 [1]
CC(=O)Nc1cc(-c2cncc(NS(=O)(=O)c3c(C)nn(C)c3Cl)c2)n(C)n1 [Example 3, N-{5-[5-(5-chloro-1,3-dimethyl-1H-pyrazol-4-ylsulphonamido)pyridin-3-yl]-1-methyl-1H-pyrazol-3-yl}acetamide] | ~0.5 µM | ~2 µM
CC(=O)Nc1cc(-c2cncc(NS(C)(=O)=O)c2)n(C)n1 [Example 1, N-[5-(5-methanesulphonamidopyridin-3-yl)-1-methyl-1H-pyrazol-3-yl]acetamide] | ~5 µM | ~40 µM
